From US20250255867A1 (Kadmon Corporation, LLC, priority 2022, published 2025)

Details: Cohort 1 200 mg QD

## CC(C)NC(=O)COc1cccc(-c2nc(Nc3ccc4[nH]ncc4c3)c3ccccc3n2)c1 [Belumosudil, 2-{3-[4-(1H-indazol-5-ylamino)-2-quinazolinyl]phenoxy}-N-(propan-2-yl) acetamide]
  Diarrhoea: Affected/At Risk: 6/17
  Diarrhoea: Affected/At Risk (%): (35.29%)
  Dizziness: # Events: 0
  Dizziness: Affected/At Risk: 0/17
  Dizziness: Affected/At Risk (%): (0%)
  Drug eruption: # Events: 0
  Drug eruption: Affected/At Risk: 0/17
  Drug eruption: Affected/At Risk (%): (0%)
  Dry eye: # Events: 3
  Dry eye: Affected/At Risk: 2/17
  Dry eye: Affected/At Risk (%): (11.76%)
  Dry skin: # Events: 1
  Dry skin: Affected/At Risk: 1/17
  Dry skin: Affected/At Risk (%): (5.88%)
  Dyspepsia: # Events: 0
  Dyspepsia: Affected/At Risk: 0/17
  Dyspepsia: Affected/At Risk (%): (0%)
  Dysphagia: # Events: 1
  Dysphagia: Affected/At Risk: 1/17
  Dysphagia: Affected/At Risk (%): (5.88%)
  Dyspnoea exertional: # Events: 1
  Dyspnoea exertional: Affected/At Risk: 1/17
  Dyspnoea exertional: Affected/At Risk (%): (5.88%)
  Dyspnoea: # Events: 2
  Dyspnoea: Affected/At Risk: 2/17
  Dyspnoea: Affected/At Risk (%): (11.76%)
  Embolism: # Events: 1
  Embolism: Affected/At Risk: 1/17
  Embolism: Affected/At Risk (%): (5.88%)
  Enamel anomaly: # Events: 0
  Enamel anomaly: Affected/At Risk: 0/17
  Enamel anomaly: Affected/At Risk (%): (0%)
  Epidural lipomatosis: # Events: 1
  Epidural lipomatosis: Affected/At Risk: 1/17
  Epidural lipomatosis: Affected/At Risk (%): (5.88%)
  Epstein-Barr virus infection: # Events: 1
  Epstein-Barr virus infection: Affected/At Risk: 1/17
  Epstein-Barr virus infection: Affected/At Risk (%): (5.88%)
  Erectile dysfunction: # Events: 4
  Erectile dysfunction: Affected/At Risk: 2/17
  Erectile dysfunction: Affected/At Risk (%): (11.76%)
  Eye irritation: # Events: 1
  Eye irritation: Affected/At Risk: 1/17
  Eye irritation: Affected/At Risk (%): (5.88%)
  Eye pain: # Events: 0
  Eye pain: Affected/At Risk: 0/17
  Eye pain: Affected/At Risk (%): (0%)
  Eye pruritus: # Events: 0
  Eye pruritus: Affected/At Risk: 0/17
  Eye pruritus: Affected/At Risk (%): (0%)
  Fall: # Events: 2
  Fall: Affected/At Risk: 2/17
  Fall: Affected/At Risk (%): (11.76%)
  Fatigue: # Events: 7
  Fatigue: Affected/At Risk: 6/17
  Fatigue: Affected/At Risk (%): (35.29%)
  Flatulence: # Events: 0
  Flatulence: Affected/At Risk: 0/17
  Flatulence: Affected/At Risk (%): (0%)
  Flushing: # Events: 0
  Flushing: Affected/At Risk: 0/17
  Flushing: Affected/At Risk (%): (0%)
  Fungal infection: # Events: 1
  Fungal infection: Affected/At Risk: 1/17
  Fungal infection: Affected/At Risk (%): (5.88%)
  Gamma-glutamyltransferase increased: # Events: 9
  Gamma-glutamyltransferase increased: Affected/At Risk: 4/17
  Gamma-glutamyltransferase increased: Affected/At Risk (%): (23.53%)
  Gastric ulcer: # Events: 0
  Gastric ulcer: Affected/At Risk: 0/17
  Gastric ulcer: Affected/At Risk (%): (0%)
  Gastrooesophageal reflux disease: # Events: 2
  Gastrooesophageal reflux disease: Affected/At Risk: 2/17
  Gastrooesophageal reflux disease: Affected/At Risk (%): (11.76%)
  Generalised oedema: # Events: 1
  Generalised oedema: Affected/At Risk: 1/17
  Generalised oedema: Affected/At Risk (%): (5.88%)
  Genital infection fungal: # Events: 0
  Genital infection fungal: Affected/At Risk: 0/17
  Genital infection fungal: Affected/At Risk (%): (0%)
  Glaucoma: # Events: 0
  Glaucoma: Affected/At Risk: 0/17
  Glaucoma: Affected/At Risk (%): (0%)
  Glucose urine present: # Events: 3
  Glucose urine present: Affected/At Risk: 2/17
  Glucose urine present: Affected/At Risk (%): (11.76%)
  Graft versus host disease in gastrointestinal tract: # Events: 1
  Graft versus host disease in gastrointestinal tract: Affected/At Risk: 1/17
  Graft versus host disease in gastrointestinal tract: Affected/At Risk (%): (5.88%)
  Gynaecomastia: # Events: 0
  Gynaecomastia: Affected/At Risk: 0/17
  Gynaecomastia: Affected/At Risk (%): (0%)
  Haematuria: # Events: 1
  Haematuria: Affected/At Risk: 1/17
  Haematuria: Affected/At Risk (%): (5.88%)
  Hair growth abnormal: # Events: 1
  Hair growth abnormal: Affected/At Risk: 1/17
  Hair growth abnormal: Affected/At Risk (%): (5.88%)
  Headache: # Events: 4
  Headache: Affected/At Risk: 4/17
  Headache: Affected/At Risk (%): (23.53%)
  Hodgkin's disease recurrent: # Events: 1
  Hodgkin's disease recurrent: Affected/At Risk: 1/17
  Hodgkin's disease recurrent: Affected/At Risk (%): (5.88%)
  Hordeolum: # Events: 1
  Hordeolum: Affected/At Risk: 1/17
  Hordeolum: Affected/At Risk (%): (5.88%)
  Hot flush: # Events: 1
  Hot flush: Affected/At Risk: 1/17
  Hot flush: Affected/At Risk (%): (5.88%)
  Hyperglycemia: # Events: 2
  Hyperglycemia: Affected/At Risk: 2/17
  Hyperglycemia: Affected/At Risk (%): (11.76%)
  Hyperhidrosis: # Events: 0
  Hyperhidrosis: Affected/At Risk: 0/17
  Hyperhidrosis: Affected/At Risk (%): (0%)
  Hyperkalaemia: # Events: 7
  Hyperkalaemia: Affected/At Risk: 3/17
  Hyperkalaemia: Affected/At Risk (%): (17.65%)
  Hypertension: # Events: 8
  Hypertension: Affected/At Risk: 5/17
  Hypertension: Affected/At Risk (%): (29.41%)
  Hyperthyroidism: # Events: 0
  Hyperthyroidism: Affected/At Risk: 0/17
  Hyperthyroidism: Affected/At Risk (%): (0%)
  Hypertriglyceridaemia: # Events: 0
  Hypertriglyceridaemia: Affected/At Risk: 0/17
  Hypertriglyceridaemia: Affected/At Risk (%): (0%)
  Hyperuricaemia: # Events: 6
  Hyperuricaemia: Affected/At Risk: 1/17
  Hyperuricaemia: Affected/At Risk (%): (5.88%)
  Hypoaesthesia: # Events: 2
  Hypoaesthesia: Affected/At Risk: 1/17
  Hypoaesthesia: Affected/At Risk (%): (5.88%)
  Hypocalcaemia: # Events: 0
  Hypocalcaemia: Affected/At Risk: 0/17
  Hypocalcaemia: Affected/At Risk (%): (0%)
